From patent US20190328721A1, “METHOD OF ACTIVATING DENDRITIC CELLS” (KOREA INSTITUTE OF SCIENCE AND TECHNOLOGY, priority 2018, published 2019)

System: bone marrow-derived dendritic cells (BMDCs)
Experiment: BMDC maturation markers CD40 and CD86 in vitro
Format: cell-based, mice
Conditions: 30 μM, 1 hour
Method: In addition, the present inventors used pretreatment with 30 μM of Y27632 for 1 hour of bone marrow-derived dendritic cells (BMDCs) stained with cell marker CellTracker CMFDA (Thermo Fisher Scientific, Inc., USA) and then removed floating tumor cells by withdrawing removing the supernatant. Twenty hours later, the expression of CD40 and CD86 was analyzed by flow cytometry.
The present inventors then investigated whether dendritic cell maturation was promoted by the combination treatment of doxorubicin and Y27632. Specifically, 30 μM of Y27632 was used to pretreat bone marrow-derived dendritic cells (BMDC) stained with CellTracker CMFDA (Thermo Fisher Scientific, USA) for 1 hour, and then doxorubicin-treated CT26.CL25 was co-cultured for 4 hours, and floating cancer cells were removed by withdrawing supernatant. The expression level of CD40 and CD86, which are dendritic cell maturation markers, was analyzed by flow cytometry after 20 hours.

C[C@@H](N)[C@H]1CC[C@H](C(=O)Nc2ccncc2)CC1 [Y27632]
DC maturation (CD40 and CD86 expression) of BMDCs (co-cultivation with CT26.CL25, analysed twenty hours later): did not increase | dendritic cell maturation (CD40 and CD86) with doxorubicin-treated CT26.CL25 (co-culture 4 hours, analysed after 20 hours): increased
